Source: US20220389061A1, “IMMUNOMODULATORS” (priority 2019, published 2022)
Starred links: 1 amine or outer side, 2 acyl side, 3 side chain; linkers in the order of their positions; H or OH if unused. Positions of bridges follow the written chain, without caps; N, C: chain ends. Non-standard residues stand in square brackets, D forms with d. Residues, ends and D or L forms follow the SMILES beside them. Groups on a side chain read outwards from the residue. *: point of attachment. Trp(1-CH2CO2Me) = COC(=O)Cn1cc(C[C@H](N)C(=O)O)c2ccccc21; Trp(1-CH2COOH) = N[C@@H](Cc1cn(CC(=O)O)c2ccccc12)C(=O)O; NH(benzothiophen-5-yl) = c1cc2cc(N*)ccc2s1; X73 = FC(F)(F)c1cc(NC(=S)*)cc(C(F)(F)F)c1; X13 = O=[N+]([O-])c1ccc(NC(=S)*)cc1; X49 = N#Cc1ccccc1NC(=N)c1ccccc1N*; Hyp = O=C(O)[C@@H]1C[C@@H](O)CN1; X14 = Cc1c[nH]c2c(NC(=S)*)cccc12; X34 = O=C(c1c2ccccc2cc2ccccc12)*; pNA = O=[N+]([O-])c1ccc(N*)cc1; NMeNle = CCCC[C@H](NC)C(=O)O; X54 = S=C(Nc1cccc2ncccc12)*; NMeA = CN[C@@H](C)C(=O)O; Dab = NCC[C@H](N)C(=O)O; X39 = CCCCOc1ccc(N*)cc1; Dap = NC[C@H](N)C(=O)O; CO = O=C([*:1])[*:2]

target: T1, PD-1/PD-L1 (Homo sapiens, UniProt Q9NZQ7); assay: PD-1/PD-L1 Homogenous Time-Resolved Fluorescence (HTRF) binding assay; conditions: not given
T1 construct: TVMV protease site linker (C); made in house; host or cells: HEK293T cells
In short: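 HTRF read-out using europium cryptate anti-Ig (1 nM) and APC anti-His (20 nM) on extracellular-domain fusion proteins in dPBS/0.1% BSA/0.05% Tween-20. Inhibitor first incubated 15 min with 10 nM PD-L1-His, followed by 20 nM PD-1-Ig for another 15 min.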

T1 sequence (Q9NZQ7 18-239): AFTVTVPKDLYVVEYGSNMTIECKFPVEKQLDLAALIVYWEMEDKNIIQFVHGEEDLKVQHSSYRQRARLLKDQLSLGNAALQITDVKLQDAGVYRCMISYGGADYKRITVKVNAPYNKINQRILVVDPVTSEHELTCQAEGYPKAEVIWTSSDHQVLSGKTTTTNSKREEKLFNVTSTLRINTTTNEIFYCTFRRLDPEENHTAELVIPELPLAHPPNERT

**Q.** How did the IC50 turn out when `CCCC[C@H]1C(=O)N(C)[C@@H](CCCC)C(=O)N[C@@H](CC(C)C)C(=O)N[C@H](C(=O)NCC(N)=O)CSCC(=O)N[C@@H](Cc2ccc(O)cc2)C(=O)N(C)[C@@H](C)C(=O)N[C@@H](CC(N)=O)C(=O)N2CCC[C@H]2C(=O)N[C@@H](CNC(=O)Nc2ccc([N+](=O)[O-])cc2)C(=O)N[C@@H](CC(C)C)C(=O)N2C[C@H](O)C[C@H]2C(=O)N[C@@H](Cc2c[nH]c3ccccc23)C(=O)N[C@@H](CCN)C(=O)N[C@@H](Cc2cn(CC(=O)O)c3ccccc23)C(=O)N1C` [Example 1132] ({CH2CO}-Y[NMeA]NP[Dap]([CO-pNA])L[Hyp]W[Dab][Trp(1-CH2COOH)][NMeNle][NMeNle]LCG-NH2; thioether N-14) was run?
**A.** 3.7 nM

**Q.** Which IC50 does the source give for `CCCC[C@H]1C(=O)N(C)[C@@H](CCCC)C(=O)N[C@@H](CC(C)C)C(=O)N[C@H](C(=O)NCC(N)=O)CSCC(=O)N[C@@H](Cc2ccc(O)cc2)C(=O)N(C)[C@@H](C)C(=O)N[C@@H](CC(N)=O)C(=O)N2CCC[C@H]2C(=O)N[C@@H](CNC(=S)Nc2ccc([N+](=O)[O-])cc2)C(=O)N[C@@H](CC(C)C)C(=O)N2C[C@H](O)C[C@H]2C(=O)N[C@@H](Cc2c[nH]c3ccccc23)C(=O)N[C@@H](CCNC(=S)Nc2ccc([N+](=O)[O-])cc2)C(=O)N[C@@H](Cc2cn(CC(=O)O)c3ccccc23)C(=O)N1C` [Example 1025] ({CH2CO}-Y[NMeA]NP[Dap](X13)L[Hyp]W[Dab](X13)[Trp(1-CH2COOH)][NMeNle][NMeNle]LCG-NH2; thioether N-14) here?
**A.** 0.8 nM

same assay, conditions: PD-L1-His 10 nM pre-incubated with inhibitor, PD-1-Ig 20 nM; read-out: HTRF IC50

**Q.** With `CCCC[C@H]1C(=O)N(C)[C@@H](CCCC)C(=O)N[C@@H](CC(C)C)C(=O)N[C@H](C(=O)NCC(N)=O)CSCC(=O)N[C@@H](Cc2ccc(O)cc2)C(=O)N(C)[C@@H](C)C(=O)N[C@@H](CC(N)=O)C(=O)N2CCC[C@H]2C(=O)N[C@@H](CNC(=O)Nc2ccc3sccc3c2)C(=O)N[C@@H](CC(C)C)C(=O)N2C[C@H](O)C[C@H]2C(=O)N[C@@H](Cc2c[nH]c3ccccc23)C(=O)N[C@@H](CCNC(=O)Nc2ccc3sccc3c2)C(=O)N[C@@H](Cc2cn(CC(=O)OC)c3ccccc23)C(=O)N1C` [Example 3057] ({CH2CO}-Y[NMeA]NP[Dap]([CO-NH(benzothiophen-5-yl)])L[Hyp]W[Dab]([CO-NH(benzothiophen-5-yl)])[Trp(1-CH2CO2Me)][NMeNle][NMeNle]LCG-NH2; thioether N-14) as the compound, how does the IC50 read?
**A.** 34 nM

**Q.** With `CCCCOc1ccc(NC(=O)NC[C@@H]2NC(=O)[C@@H]3CCCN3C(=O)[C@H](CC(N)=O)NC(=O)[C@H](C)N(C)C(=O)[C@H](Cc3ccc(O)cc3)NC(=O)CSC[C@@H](C(=O)NCC(N)=O)NC(=O)[C@H](CC(C)C)NC(=O)[C@H](CCCC)N(C)C(=O)[C@H](CCCC)N(C)C(=O)[C@H](Cc3cn(CC(=O)O)c4ccccc34)NC(=O)[C@H](CCN)NC(=O)[C@H](Cc3c[nH]c4ccccc34)NC(=O)[C@@H]3C[C@@H](O)CN3C(=O)[C@H](CC(C)C)NC2=O)cc1` [Example 1139] ({CH2CO}-Y[NMeA]NP[Dap]([CO-X39])L[Hyp]W[Dab][Trp(1-CH2COOH)][NMeNle][NMeNle]LCG-NH2; thioether N-14) as the compound, how does the IC50 read?
**A.** 13 nM

**Q.** `CCCC[C@H]1C(=O)N(C)[C@@H](CCCC)C(=O)N[C@@H](CC(C)C)C(=O)N[C@H](C(=O)NCC(N)=O)CSCC(=O)N[C@@H](Cc2ccc(O)cc2)C(=O)N(C)[C@@H](C)C(=O)N[C@@H](CC(N)=O)C(=O)N2CCC[C@H]2C(=O)N[C@@H](CNC(=S)Nc2cccc3ncccc23)C(=O)N[C@@H](CC(C)C)C(=O)N2C[C@H](O)C[C@H]2C(=O)N[C@@H](Cc2c[nH]c3ccccc23)C(=O)N[C@@H](CCNC(=S)Nc2cccc3ncccc23)C(=O)N[C@@H](Cc2cn(CC(=O)O)c3ccccc23)C(=O)N1C` [Example 3024] ({CH2CO}-Y[NMeA]NP[Dap](X54)L[Hyp]W[Dab](X54)[Trp(1-CH2COOH)][NMeNle][NMeNle]LCG-NH2; thioether N-14) was tested. Which IC50 did it give?
**A.** 3.2 nM

**Q.** Which IC50 does the source give for `CCCC[C@H]1C(=O)N(C)[C@@H](CCCC)C(=O)N[C@@H](CC(C)C)C(=O)N[C@H](C(=O)NCC(N)=O)CSCC(=O)N[C@@H](Cc2ccc(O)cc2)C(=O)N(C)[C@@H](C)C(=O)N[C@@H](CC(N)=O)C(=O)N2CCC[C@H]2C(=O)N[C@@H](CNC(=O)Nc2ccccc2C(=N)Nc2ccccc2C#N)C(=O)N[C@@H](CC(C)C)C(=O)N2C[C@H](O)C[C@H]2C(=O)N[C@@H](Cc2c[nH]c3ccccc23)C(=O)N[C@@H](CCNC(=O)Nc2ccccc2C(=N)Nc2ccccc2C#N)C(=O)N[C@@H](Cc2cn(CC(=O)O)c3ccccc23)C(=O)N1C` [Example 1087] ({CH2CO}-Y[NMeA]NP[Dap]([CO-X49])L[Hyp]W[Dab]([CO-X49])[Trp(1-CH2COOH)][NMeNle][NMeNle]LCG-NH2; thioether N-14) here?
**A.** 2.6 nM

**Q.** `CCCC[C@H]1C(=O)N(C)[C@@H](CCCC)C(=O)N[C@@H](CC(C)C)C(=O)N[C@H](C(=O)NCC(N)=O)CSCC(=O)N[C@@H](Cc2ccc(O)cc2)C(=O)N(C)[C@@H](C)C(=O)N[C@@H](CC(N)=O)C(=O)N2CCC[C@H]2C(=O)N[C@@H](CN)C(=O)N[C@@H](CC(C)C)C(=O)N2C[C@H](O)C[C@H]2C(=O)N[C@@H](Cc2c[nH]c3ccccc23)C(=O)N[C@@H](CCNC(=O)Nc2ccc3sccc3c2)C(=O)N[C@@H](Cc2cn(CC(=O)O)c3ccccc23)C(=O)N1C` [Example 3038] ({CH2CO}-Y[NMeA]NP[Dap]L[Hyp]W[Dab]([CO-NH(benzothiophen-5-yl)])[Trp(1-CH2COOH)][NMeNle][NMeNle]LCG-NH2; thioether N-14) was tested. Which IC50 did it give?
**A.** 5.3 nM

**Q.** `CCCC[C@H]1C(=O)N(C)[C@@H](CCCC)C(=O)N[C@@H](CC(C)C)C(=O)N[C@H](C(=O)NCC(N)=O)CSCC(=O)N[C@@H](Cc2ccc(O)cc2)C(=O)N(C)[C@@H](C)C(=O)N[C@@H](CC(N)=O)C(=O)N2CCC[C@H]2C(=O)N[C@@H](CNC(=O)c2c3ccccc3cc3ccccc23)C(=O)N[C@@H](CC(C)C)C(=O)N2C[C@H](O)C[C@H]2C(=O)N[C@@H](Cc2c[nH]c3ccccc23)C(=O)N[C@@H](CCN)C(=O)N[C@@H](Cc2cn(CC(=O)O)c3ccccc23)C(=O)N1C` [Example 2015] ({CH2CO}-Y[NMeA]NP[Dap](X34)L[Hyp]W[Dab][Trp(1-CH2COOH)][NMeNle][NMeNle]LCG-NH2; thioether N-14) was tested. Which IC50 did it give?
**A.** 3.2 nM

**Q.** `CCCC[C@H]1C(=O)N(C)[C@@H](CCCC)C(=O)N[C@@H](CC(C)C)C(=O)N[C@H](C(=O)NCC(N)=O)CSCC(=O)N[C@@H](Cc2ccc(O)cc2)C(=O)N(C)[C@@H](C)C(=O)N[C@@H](CC(N)=O)C(=O)N2CCC[C@H]2C(=O)N[C@@H](CNC(=S)Nc2cc(C(F)(F)F)cc(C(F)(F)F)c2)C(=O)N[C@@H](CC(C)C)C(=O)N2C[C@H](O)C[C@H]2C(=O)N[C@@H](Cc2c[nH]c3ccccc23)C(=O)N[C@@H](CCN)C(=O)N[C@@H](Cc2cn(CC(=O)O)c3ccccc23)C(=O)N1C` [Example 1136] ({CH2CO}-Y[NMeA]NP[Dap](X73)L[Hyp]W[Dab][Trp(1-CH2COOH)][NMeNle][NMeNle]LCG-NH2; thioether N-14) was tested. Which IC50 did it give?
**A.** 14 nM

**Q.** Which IC50 does the source give for `CCCC[C@H]1C(=O)N(C)[C@@H](CCCC)C(=O)N[C@@H](CC(C)C)C(=O)N[C@H](C(=O)NCC(N)=O)CSCC(=O)N[C@@H](Cc2ccc(O)cc2)C(=O)N(C)[C@@H](C)C(=O)N[C@@H](CC(N)=O)C(=O)N2CCC[C@H]2C(=O)N[C@@H](CNC(=S)Nc2cccc3c(C)c[nH]c23)C(=O)N[C@@H](CC(C)C)C(=O)N2C[C@H](O)C[C@H]2C(=O)N[C@@H](Cc2c[nH]c3ccccc23)C(=O)N[C@@H](CCNC(=S)Nc2cccc3c(C)c[nH]c23)C(=O)N[C@@H](Cc2cn(CC(=O)O)c3ccccc23)C(=O)N1C` [Example 3025] ({CH2CO}-Y[NMeA]NP[Dap](X14)L[Hyp]W[Dab](X14)[Trp(1-CH2COOH)][NMeNle][NMeNle]LCG-NH2; thioether N-14) here?
**A.** 2.9 nM
